Legend:
[1] = system: SET-2 cells; details: human megakaryoblastic cell line; cited from earlier work
[2] = system: TF1 cells; assay: Cytotoxicity, PrestoBlue assay, TF1 cells; type: cell-based; details: Homo sapiens, TF-1, 72 h, read-out: IC50 toward TF1 cells
[3] = system: TF1 cells; assay: Annexin V and dead cell flow cytometric apoptosis analysis; type: cell-based, human; details: TF1, IC25, IC50, IC75, 24 h
[4] = system: HEL cells; assay: Cytotoxicity, PrestoBlue assay, HEL cells; type: cell-based; details: Homo sapiens, 72 h, read-out: IC50 toward HEL cells
[5] = system: JAK1; details: read-out: IC50 for JAK1; cited from earlier work
[6] = molecular target: JAK3 (Homo sapiens, UniProt P52333); details: read-out: IC50 for JAK3 kinase inhibition; cited from earlier work
JAK3, sequence (P52333 781-1124 limits assumed): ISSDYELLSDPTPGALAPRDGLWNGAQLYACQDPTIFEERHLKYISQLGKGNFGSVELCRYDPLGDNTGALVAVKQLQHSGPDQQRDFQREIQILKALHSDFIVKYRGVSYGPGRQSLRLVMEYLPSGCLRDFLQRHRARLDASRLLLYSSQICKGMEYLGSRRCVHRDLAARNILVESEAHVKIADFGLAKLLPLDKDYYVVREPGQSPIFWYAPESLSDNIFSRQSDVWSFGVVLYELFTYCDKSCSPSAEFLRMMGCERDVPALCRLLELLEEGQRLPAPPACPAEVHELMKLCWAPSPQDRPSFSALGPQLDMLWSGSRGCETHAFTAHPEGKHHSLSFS

Q: For `Fc1cc(-c2cccc3ncc(-c4cnn(C5CCNCC5)c4)nc23)cc(F)c1CN1CCOCC1` [NVP-BSK805], which “Apoptosis induction in SET-2 cells” value [1] is on record?
A: induced apoptosis in SET-2 cells

Q: With `N#CC[C@H](C1CCCC1)n1cc(-c2ncnc3[nH]ccc23)cn1` [ruxolitinib] as the molecule, how does the IC50 [2] read?
A: 10.7 ± 0.88 µM

Q: What about the “Percentage of cell apoptosis vs dose, annexin V” value [3] of the same molecule?
A: increased in a dose-dependent manner

Q: What about the IC50 [4] of the same molecule?
A: 19.3 ± 0.64 µM

Q: Which IC50 [6] does the source give for `COc1cc2ncnc(Nc3ccc(O)cc3)c2cc1OC` [WHI-P131] here?
A: 9 µM

Q: Which “Percentage of cell apoptosis vs dose, annexin V” value [3] does the source give for `C[C@@H]1CCN(C(=O)CC#N)C[C@@H]1N(C)c1ncnc2[nH]ccc12` [tofacitinib] here?
A: increased in a dose-dependent manner
